From patent US11497751B2, “Modulators of Rho-associated protein kinase” (Redx Pharma PLC, priority 2018, dated 2022)
“And” between values parts separate entries of the source, which are not always exact repeats. Identical values can stand only once.

Target: T1, N-terminal 6His-tagged ROCK2 catalytic domain 11-552 (Homo sapiens, UniProt O75116)
T1 construct: N-terminal 6His-tagged ROCK2 catalytic domain 11-552; 6His (N); purchased Dundee University, UK; host or cells: baculovirus expression system
T1 sequence (O75116 11-552): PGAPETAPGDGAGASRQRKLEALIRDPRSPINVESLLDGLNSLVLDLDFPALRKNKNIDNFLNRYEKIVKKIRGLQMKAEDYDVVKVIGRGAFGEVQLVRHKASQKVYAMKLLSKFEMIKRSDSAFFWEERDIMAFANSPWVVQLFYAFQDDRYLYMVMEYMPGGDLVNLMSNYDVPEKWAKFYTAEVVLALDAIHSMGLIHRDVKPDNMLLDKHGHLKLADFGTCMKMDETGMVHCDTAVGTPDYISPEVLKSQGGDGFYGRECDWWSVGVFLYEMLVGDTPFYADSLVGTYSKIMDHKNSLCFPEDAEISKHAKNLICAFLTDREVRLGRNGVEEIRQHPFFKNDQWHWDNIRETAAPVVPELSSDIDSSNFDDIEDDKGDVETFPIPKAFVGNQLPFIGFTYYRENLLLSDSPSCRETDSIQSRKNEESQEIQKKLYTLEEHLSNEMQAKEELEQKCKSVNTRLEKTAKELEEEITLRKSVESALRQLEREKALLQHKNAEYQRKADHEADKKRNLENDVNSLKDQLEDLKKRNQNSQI
Experiment: ROCK2 binding activity: ROCK2 inhibition, ADP-Glo Kinase Assay
Format: biochemical
Details: 1.25 nM ROCK2, 100 μM long S6 peptide, 20 μM ATP; 1 hour pre-incubation; read-out: ADP-Glo kinase activity assay ROCK2 Category
Description: Assay for ROCK2 inhibition was performed using the protein construct N-terminal 6His-tagged ROCK2 catalytic domain 11-552 (Dundee University, UK). Protein was purified from a baculovirus expression system. Long S6 peptide ([…]) was used as substrate. Kinase reactions were carried out in 15 μl volume in a 96-well plate (black, half area) using 1.25 nM constitutively active ROCK2 kinase, 100 μM long S6 peptide, 20 μM ATP and test compound in DMSO (or DMSO only for controls). The final concentration of DMSO was 1%. Assay buffer was 50 mM HEPES pH 7.5 supplemented with 0.2 mM EDTA, 10 mM magnesium acetate, 0.01% Tween-20, 1 mM DTT and 0.01% BSA. Test compounds were pre-incubated with ROCK2 kinase for 1 hour before addition of ATP and long S6 peptide. After incubation for a further 1 hour, the amount of ADP produced was measured using ADP-Glo Kinase Assay (Promega) as per manufacturer's instructions. The luminescence was measured on a PHERAstar FS (BMG Labtech). The concentration of test compound required to inhibit ADP production by 50% (the IC50) was calculated using a four-parameter logistic function with software by Dotmatics.
The category “+” refers to compounds with a ROCK2 IC50 value of >10 μM. The category “++” refers to compounds with a ROCK2 IC50 value of 10 to 3 μM. The category “+++” refers to compounds with a ROCK2 IC50 value of 3 to 0.3 μM. The category “++++” refers to compounds with a ROCK2 IC50 value of <0.3 μM.

IC50 | Compound
300 to 3000 nM | COCCNC(=O)COc1ccc(-c2nnc(Nc3ccc4[nH]ncc4c3)[nH]2)cc1 [Example 155]
300 to 3000 nM | O=C(COc1ccc(-c2nnc(Nc3ccc4[nH]ncc4c3)[nH]2)cc1)NC1CCOC1 (stereo not shown) [Example 159]
< 300 nM | O=C(COc1ccc(-c2nnc(Nc3ccc4[nH]ncc4c3)[nH]2)cc1)NC1CCC1 [Example 161]
< 300 nM | O=C(COc1ccc(-c2nnc(Nc3ccc4[nH]ncc4c3)[nH]2)cc1)NC1CC1 [Example 162]
< 300 nM | COc1cc(-c2nc(Nc3ccc4[nH]ncc4c3)n(C)n2)ccc1OCC(=O)NC(C)C [Example 167]
< 300 nM | CCNC(=O)c1ccc(-c2nc(Nc3ccc4[nH]ncc4c3)n(C)n2)cc1OC [Example 168]
300 to 3000 nM | COc1cc(-c2nc(Nc3ccc4[nH]ncc4c3Cl)n(C)n2)ccc1C(=O)N1CCOCC1 [Example 172]
< 300 nM | CNC(=O)c1ccc(-c2nc(Nc3ccc4[nH]ncc4c3Cl)n(C)n2)cc1OC [Example 174]
< 300 nM | Cn1nc(-c2ccc(C(=O)NC3CCC3)cc2)nc1Nc1ccc2[nH]ncc2c1Cl [Example 176]
< 300 nM | COc1cc(-c2nc(Nc3ccc4[nH]ncc4c3C)n(C)n2)ccc1C(=O)NC(C)(C)C [Example 181]
< 300 nM | COc1cc(-c2nc(Nc3ccc4[nH]ncc4c3C)n(C)n2)ccc1C(=O)NC1CC1 [Example 182]
< 300 nM | COc1cc(-c2nc(Nc3ccc4[nH]ncc4c3Cl)n(C)n2)ccc1C(=O)NC(C)C [Example 193, 4-[5-[(4-chloro-1H-indazol-5-yl)amino]-1-methyl-1,2,4-triazol-3-yl]-N-isopropyl-2-methoxy-benzamide]
< 300 nM | COc1cc(-c2nc(Nc3ccc4[nH]ncc4c3Cl)n(C)n2)ccc1C(=O)NC1CCOCC1 [Example 196]
300 to 3000 nM | COc1cc(-c2nc(Nc3ccc4[nH]ncc4c3Cl)n(C)n2)ccc1C(=O)N1CCCC1 [Example 197]
< 300 nM | COc1cc(-c2nc(Nc3ccc4[nH]ncc4c3Cl)n(C)n2)ccc1C(=O)NC1(CO)CC1 [Example 198]
300 to 3000 nM | COc1cc(-c2nc(Nc3ccc4[nH]ncc4c3Cl)n(C)n2)ccc1C(=O)NC#N [Example 199]
< 300 nM | COc1cc(-c2nc(Nc3ccc4[nH]ncc4c3Cl)n(C)n2)ccc1C(=O)NC1CCS(=O)(=O)C1 (stereo not shown) [Example 200]
< 300 nM | COc1cc(-c2nc(Nc3ccc4[nH]ncc4c3Cl)n(C)n2)ccc1C(=O)NC1CCN(C)C1 (stereo not shown) [Example 202]
< 300 nM | COc1cc(-c2nc(Nc3ccc4[nH]ncc4c3Cl)n(C)n2)ccc1OCC(=O)NC(C)(C)CO [Example 205]
< 300 nM | COc1cc(-c2nc(Nc3ccc4[nH]ncc4c3Cl)n(C)n2)ccc1OCC(=O)NCC(C)O (stereo not shown) [Example 206]
< 300 nM | COc1cc(-c2nc(Nc3ccc4[nH]ncc4c3Cl)n(C)n2)ccc1OCC(=O)NC(C)CO (stereo not shown) [Example 208]
< 300 nM | COc1cc(-c2nc(Nc3ccc4[nH]ncc4c3Cl)n(C)n2)ccc1OCC(=O)NCC1(O)CC1 [Example 209]
< 300 nM | COc1cc(-c2nc(Nc3ccc4[nH]ncc4c3Cl)n(C)n2)ccc1OCC(=O)NC1(CO)CC1 [Example 211]

The next lines start with the compound.

Compound | IC50
COc1cc(-c2nc(Nc3ccc4[nH]ncc4c3Cl)n(-c3ccccn3)n2)ccc1C(=O)NCC(F)(F)F [Example 153] | < 300 nM
O=C(COc1ccc(-c2nnc(Nc3ccc4[nH]ncc4c3)[nH]2)cc1)N1CCOCC1 [Example 154, 2-[4-[5-(1H-Indazol-5-ylamino)-4H-1,2,4-triazol-3-yl]phenoxy]-1-morpholinoethanone] | 300 to 3000 nM
O=C(COc1ccc(-c2nnc(Nc3ccc4[nH]ncc4c3)[nH]2)cc1)NC1CCNC1 (stereo not shown) [Example 156] | < 300 nM
O=C(COc1ccc(-c2nnc(Nc3ccc4[nH]ncc4c3)[nH]2)cc1)N[C@@H]1CCNC1 [Example 157] | < 300 nM
O=C(COc1ccc(-c2nnc(Nc3ccc4[nH]ncc4c3)[nH]2)cc1)N[C@H]1CCNC1 [Example 158] | < 300 nM
O=C(COc1ccc(-c2nnc(Nc3ccc4[nH]ncc4c3)[nH]2)cc1)NC1CCCC1 [Example 160] | < 300 nM
CN1CCC(NC(=O)COc2ccc(-c3nnc(Nc4ccc5[nH]ncc5c4)[nH]3)cc2)C1 (stereo not shown) [Example 163] | 300 to 3000 nM
O=C(COc1ccc(-c2nnc(Nc3ccc4[nH]ncc4c3)[nH]2)cc1)NC1COC1 [Example 164] | < 300 nM
COc1cc(-c2nnc(Nc3ccc4[nH]ncc4c3)[nH]2)ccc1OCC(=O)NC1CCC1 [Example 165] | < 300 nM
CC(C)NC(=O)c1ccc(-c2nc(Nc3ccc4[nH]ncc4c3Cl)n(C)n2)cc1 [Example 166, 4-[5-[(4-chloro-1H-indazol-5-yl)amino]-1-methyl-1,2,4-triazol-3-yl]-N-isopropyl-benzamide] | < 300 nM
COc1cc(-c2nc(Nc3ccc4[nH]ncc4c3)n(C)n2)ccc1C(=O)NC(C)C [Example 169] | < 300 nM
COc1cc(-c2nc(Nc3ccc4[nH]ncc4c3)n(C)n2)ccc1C(=O)NC(C)(C)C [Example 170] | < 300 nM
Cn1nc(-c2ccc(C(=O)NCC(F)(F)F)cc2)nc1Nc1ccc2[nH]ncc2c1Cl [Example 171] | < 300 nM
COc1cc(-c2nc(Nc3ccc4[nH]ncc4c3Cl)n(C)n2)ccc1C(=O)N1CC(CO)(CO)C1 [Example 173] | 3000 to 10000 nM
COc1cc(-c2nc(Nc3ccc4[nH]ncc4c3Cl)n(C)n2)ccc1C(=O)NC(C)(C)C [Example 175] | < 300 nM
Cn1nc(-c2ccc(C(=O)NC3CC3)cc2)nc1Nc1ccc2[nH]ncc2c1Cl [Example 177] | < 300 nM
COc1cc(-c2nc(Nc3ccc4[nH]ncc4c3C)n(C)n2)ccc1C(=O)NCC(F)(F)F [Example 178] | < 300 nM
COc1cc(-c2nc(Nc3ccc4[nH]ncc4c3C)n(C)n2)ccc1C(=O)NC(C)C [Example 179] | < 300 nM
CCNC(=O)c1ccc(-c2nc(Nc3ccc4[nH]ncc4c3C)n(C)n2)cc1OC [Example 180] | < 300 nM
COc1cc(-c2nc(Nc3ccc4[nH]ncc4c3F)n(C)n2)ccc1C(=O)NC(C)C [Example 183] | < 300 nM
COc1cc(-c2nc(Nc3ccc4[nH]ncc4c3F)n(C)n2)ccc1C(=O)NCC(F)(F)F [Example 184] | 300 to 3000 nM and < 300 nM
COc1cc(-c2nc(Nc3ccc4[nH]ncc4c3Cl)n(C(C)C)n2)ccc1C(=O)NC(C)C [Example 191] | < 300 nM
COc1cc(-c2nc(Nc3ccc4[nH]ncc4c3Cl)n(C(C)C)n2)ccc1C(=O)NCC(F)(F)F [Example 192] | < 300 nM
COc1cc(-c2nc(Nc3ccc4[nH]ncc4c3Cl)n(C)n2)ccc1C(=O)NC1CC1 [Example 195] | < 300 nM
COc1cc(-c2nc(Nc3ccc4[nH]ncc4c3Cl)n(C)n2)ccc1C(=O)NCC(F)(F)F [Example 201] | < 300 nM
COc1cc(-c2nc(Nc3ccc4[nH]ncc4c3Cl)n(C)n2)ccc1C(N)=O [Example 203] | < 300 nM
COc1cc(-c2nc(Nc3ccc4[nH]ncc4c3Cl)n(C)n2)ccc1OCC(=O)NC(C)(C)C [Example 204, N-tert-butyl-2-[4-[5-[(4-chloro-1H-indazol-5-yl)amino]-1-methyl-1,2,4-triazol-3-yl]-2-methoxy-phenoxy]acetamide] | < 300 nM
COc1cc(-c2nc(Nc3ccc4[nH]ncc4c3Cl)n(C)n2)ccc1OCC(=O)NCC(C)(C)O [Example 207] | < 300 nM
COc1cc(-c2nc(Nc3ccc4[nH]ncc4c3Cl)n(C)n2)ccc1OCC(=O)NC(C)C(F)(F)F (stereo not shown) [Example 210] | < 300 nM
